Measurements: ChEMBL document CHEMBL3272320, “Antidepressant and anticonvulsant activity of 1-(5-phenyl-4-oxazolin-2-yl)-4-substituted piperazines” (1976)
Active and inactive are the calls of the source. The calls are words filed in the database; no cut-off is given here.

Key:
Mus musculus [1] = experiment: Antidepressant activity in mouse at […] after 4 hrs by Dopa potentiation test; assay type: functional, organism-based
Mus musculus [2] = experiment: Anticonvulsant activity in mouse assessed as protection against tonic extensor component of audiogenic seizures at 100 mg/kg, po; assay type: functional
Mus musculus [3] = experiment: Antidepressant activity in po dosed mouse after 4 hrs by Dopa potentiation test relative to pemoline; assay type: functional

O=C1N=C(N2CCN(C(=O)Nc3ccc(Cl)cc3)CC2)OC1c1ccccc1 (configuration not stated)
Activity (Mus musculus [1]): Active | Activity (Mus musculus [2]): 50%

O=C1N=C(N2CCN(C(=O)Nc3ccccc3)CC2)OC1c1ccccc1 (configuration not stated)
Activity (Mus musculus [1]): Active | Activity (Mus musculus [2]): 50%

CCN(CC)C(=O)N1CCN(C2=NC(=O)C(c3ccccc3)O2)CC1 (configuration not stated)
Activity (Mus musculus [1]): Active | Activity (Mus musculus [2]): 60%

COc1ccc(NC(=O)N2CCN(C3=NC(=O)C(c4ccccc4)O3)CC2)cc1 (configuration not stated)
Activity (Mus musculus [1]): Active | Activity (Mus musculus [2]): 20%

COc1cc(/C=C/C(=O)N2CCN(C3=NC(=O)C(c4ccccc4)O3)CC2)cc(Br)c1OC (configuration not stated)
fold change (FC) (Mus musculus [3]): 3 | Activity (Mus musculus [1]): Active

COc1cc(/C=C/C(=O)N2CCN(C3=NC(=O)C(c4ccccc4)O3)CC2)cc(OC)c1OC (configuration not stated)
fold change (FC) (Mus musculus [3]): 2.5 | Activity (Mus musculus [1]): Active

NC1=NC(=O)C(c2ccccc2)O1 (configuration not stated) [PEMOLINE]
Activity (Mus musculus [1]): Active | Activity (Mus musculus [2]): 90%

CNC(=O)N1CCN(C2=NC(=O)C(c3ccccc3)O2)CC1 (configuration not stated)
Activity (Mus musculus [1]): Active | Activity (Mus musculus [2]): 50%

COc1ccc(/C=C/C(=O)N2CCN(C3=NC(=O)C(c4ccccc4)O3)CC2)cc1 (configuration not stated)
Activity (Mus musculus [1]): Active

NC(=O)N1CCN(C2=NC(=O)C(c3ccccc3)O2)CC1 (configuration not stated)
Activity (Mus musculus [1]): Active | Activity (Mus musculus [2]): 10%

COc1cc(/C(C)=C/C(=O)N2CCN(C3=NC(=O)C(c4ccccc4)O3)CC2)cc(OC)c1OC (configuration not stated)
Activity (Mus musculus [1]): Active

O=C1N=C(N2CCN(C(=O)/C=C/c3ccc(F)cc3)CC2)OC1c1ccccc1 (configuration not stated)
fold change (FC) (Mus musculus [3]): 2 | Activity (Mus musculus [1]): Active
